# Measurements: patent US6251903A, “Alkyl, azido, alkoxy, and fluoro-substituted and fused quinoxalinediones and the use thereof as glycine receptor antagonist” (priority 2000, dated 2001)
# “Also recorded” adds a separate entry of the source.
# How the values were obtained:
# [1] = tested on: dorsal horn nociceptive neurons; details: literature; cited from earlier work
# [2] = tested on: glycine binding site of the NMDA receptor; details: literature; cited from earlier work
# [3] = literature; cited from earlier work
# [4] = penetration of the blood/brain barrier, access to the central nervous system; format: in vivo; details: inferred from Ki and MES ED50
# [5] = molecular target: glycine binding site (Rattus norvegicus, UniProt P35439); test: affinity for the glycine binding site / glycine/NMDA receptor (Ki; method not stated)
# From the text: (§1) The binding affinities of quinoxaline-2,3-diones at NMDA receptor glycine sites also were estimated by electrophysiological assays with either cloned rat NMDA receptors expressed in Xenopus oocytes, or non-NMDA receptors expressed in oocytes by whole rat brain poly(A)^+ RNA. […] For NMDA receptors Ki values were approximated by averaging values at three subtype combinations (NR1A/NR2A, NR1A/NR2B, and NR1A/NR2C).
# [6] = tested on: mice; test: formalin test for pain in Swiss Webster mice; format: in vivo, male Swiss Webster mice; details: for time spent licking, early phase / time spent licking, late phase (15-50 min): mean ± s.e.m.
# Description: The effects of the glycine receptor antagonists of the present invention on chronic pain can be evaluated as follows. Male Swiss/Webster mice weighing 25-35 grams are housed five to a cage with free access to food and water and are maintained on a 12 hour light cycle (light onset at 0800h). The glycine receptor antagonist is dissolved in DMSO at a concentration of 140 and 5-40 mg/mL, respectively. DMSO is used as vehicle control. All drugs=are injected intraperitoneally (1 μl/g). […] Mice are observed in a plexiglass cylinder, 25 cm in diameter and 30 cm in height. The plantar surface of one hindpaw is injected subcutaneously with 20 μl of 5% formalin. The degree of pain is determined by measuring the amount of time the animal spends licking the formalin-injected paw during the following time intervals: 0-5' (early phase); 5'-10', 10'-15' and 15'-50' (late phase). To test whether the glycine/excitatory amino acid antagonists prevent chronic pain in the test animals, vehicle (DMSO) or drugs dissolved in vehicle at doses of 1 mg/kg to 40 mg/kg are injected intraperitoneally 30 minutes prior to the formalin injection. For each dose of drug or vehicle control at least six animals are used.
# Briefly, after a 60 minute accommodation period in plexiglass jars, mice were weighed and injected intraperitoneally (i.p.) with NDMQX (1-20 mg/kg; N=6-10 mice/dose). Controls were injected with DMSO (1 mL/kg, i.p.). Thirty min later, mice were injected with formalin (20 μl of 5% solution) just under the skin of the right hind paw, transferred to the plexiglass jars, and immediately observed for licking or biting of the injected paw for 1 hr. The amount of time that each mouse spent licking the injected paw was measured at 0-5 min (early phase) and 15-50 min (late phase).
# In the formalin test, following a 1 hr accommodation period, mice were injected i.p. with NMCQX (1.00-10.00 mg/kg, N=7-13 mice/dose) or NDMQX (0.5-20.00 mg/kg, N=8-9 mice/dose). Control mice were injected with Tris (0.5 M) or Bis-Tris (0.2 M), respectively. Mice were then injected with formalin. […] The amount of time that each mouse spent licking and/or biting the injected paw was recorded for 1 hr.
# [7] = tested on: mice; test: morphine tolerance in the formalin test (8 days chronic); format: in vivo, male Swiss Webster mice
# Description: A modification of a previously described method was used (Hunskaar et al., J. Neurosci. Meth. 14:69-76 (1985)). Briefly, mice were placed in Plexiglas jars for at least 1 hr for accommodation to the experimental condition. Formalin (20 μl of 5% formaldehyde solution in saline) was injected into the dorsal surface of the right hind paw using a microsyringe (Hamilton Co., Reno, Nev.) with a 27-gauge needle. Mice were then transferred to the Plexiglas jars and immediately observed for licking or biting of the injected paw for 1 hr. The amount of time that each mouse spent licking or biting the injected paw was recorded for every 5-min period for a 1 hr observation period.
# […] Mice were immediately, within a minute, injected with either saline or morphine (20 mg/kg, s.c.). On day 9, mice were weighed and after a 1-hr accommodation period-injected with morphine (4 mg/kg, s.c.). Thirty min later, all mice were tested in the formalin test (see above).
# [8] = tested on: rats; test: rat model of permanent focal cerebral ischemia, continuous intravenous infusion; format: in vivo, male Sprague-Dawley rats
# Description: Male Sprague-Dawley rats (290-320 g) were […] and maintained under anesthesia with ±2% of halothane. […] The common carotid arteries (CCA) were isolated, and a loose silk ligature Was placed around each CCA. A vertical skin incision was made between the left orbit and the auditory canal, posterior part of zygoma removed and small opening (2.0/2.5 mm) drilled dorsorostrally to the foramen ovale under constant saline irrigation. The dura was opened with a microsurgical hook and the brain gently retracted with a fine spatula to expose the bifurcation of the internal carotid artery and the middle cerebral artery. The ipsilateral CCA was ligated and the MCA coagulated from its origin to the olfactory tract Two hours after MCA occlusion, the clip from the contralateral CCA was removed.
# NDMQX was dissolved in 0.1 M L-arginine and 5% glucose and infused as a slow 10 mg/kg i.v. bolus (immediately after MCA occlusion) followed by 7 mg/kg/h infusion for 22 hours.
# Brains were sliced into 2 mm blocks and stained with tetrazolium red (2,3,5-triphenyl tetrazolium chloride). The areas of brain damage were assessed using an image analyzer (Image-1, Universal Imaging Corporation, PA) to determine the volume of cortical and subcortical infarction by integration of areas and the distance between each level.
# For the drug administration, the NMCQX was dissolved in 0.05 Tris and 5% glucose. It was infused as a slow 2 mg/kg i.v. bolus (immediately after MCA occlusion) followed by 1.4 mg/kg/h infusion for 22 hours.
# [9] = tested on: mice; test: effect of chronic NDMQX on morphine antinociception in the formalin test; format: in vivo, male Swiss Webster mice; details: 40 mg/kg i.p., 8 days
# [10] = tested on: mice; test: MES test with i.p. NMCQX or NDMQX (Example 51); format: in vivo, Swiss Webster mice; details: NMCQX 1.25-7.50 mg/kg, NDMQX 5.00-15.00 mg/kg
# Description: In the MES test, mice were injected i.p. with NMCQX (1.25-7.50 mg/kg) or NDMQX (5.00-15.00 mg/kg). Control mice were injected with Tris (0.05 M) or Arginine (0.1 M), respectively. Seizures were then induced by applying a rectangular pulse, 50 mA, 60 pulses/sec, 0.8 msec pulse width, and 0.2 sec train length, at the time of the drugs' peak effect.
# [11] = molecular target: NMDA receptor glycine sites; test: electrophysiological assay, cloned rat NMDA receptors expressed in Xenopus oocytes; format: cell-based; details: Table II; from electrophysiology using Xenopus oocytes
# From the text: as §1
# [12] = tested on: mice; test: anticonvulsant activity in maximum electroshock seizure (MES) experiments in mice; format: in vivo, male Swiss/Webster mice; details: route not stated
# Description: The seizure stimulus parameters were: 50 mA, 60 Hz, rectangular pulse, width 0.8 msec, duration 200 msec. Tonic hind limb extension observed after application of the electrical stimulus was recorded as occurrence of seizure. The drug was applied i.v. as an aqueous Tris (Tromethamine) solution.
compound,measurement,setting,value
O=C(O)c1cc(O)c2ccc(Cl)cc2n1 [7-Cl-kynurenic acid],"blockade of ""wind up""",[1],"blocked the ""wind up"" phenomenon"
same,glycine site antagonism or affinity (words),[2],relatively high receptor binding affinity in vitro
same,penetration of the blood/brain barrier (words),[3],cannot penetrate the blood/brain barrier
"Cc1cc2nc(O)c(O)nc2c([N+](=O)[O-])c1C [NDMQX, 6,7-Dimethyl-5-nitro-1,4-dihydroquinoxaline-2,3-dione]","times better in crossing the blood brain barrier than 6,7-dichloro-5-nitro-1,4-dihydroquinoxaline-2,3-dione",[4],about 10 times
same,Ki,[5],43 nM
same,"times less active than 6,7-dichloro-5-nitro-1,4-dihydroquinoxaline-2,3-dione at the glycine/NMDA receptor",[5]; from Ki,about 10 times
same,"time spent licking, early phase",[6]; 1.0 mg/kg i.p.,72.57 ± 14.2 sec per 5 min period
same,"time spent licking, late phase (15-50 min)",[6]; 1.0 mg/kg i.p.,37.59 ± 5.37 sec per 5 min period
same,"time spent licking, early phase",[6]; 2.5 mg/kg i.p.,78.50 ± 10.0 sec per 5 min period
same,"time spent licking, late phase (15-50 min)",[6]; 2.5 mg/kg i.p.,26.38 ± 5.43 sec per 5 min period
same,"time spent licking, early phase",[6]; 5 mg/kg i.p.,32.83 ± 8.28 sec per 5 min period
same,"time spent licking, late phase (15-50 min)",[6]; 5 mg/kg i.p.,10.24 ± 2.66 sec per 5 min period
same,"time spent licking, early phase",[6]; 10 mg/kg i.p.,29.17 ± 14.9 sec per 5 min period
same,"time spent licking, late phase (15-50 min)",[6]; 10 mg/kg i.p.,10.19 ± 2.44 sec per 5 min period
same,"time spent licking, early phase",[6]; 15 mg/kg i.p.,6.83 ± 1.85 sec per 5 min period
same,"time spent licking, late phase (15-50 min)",[6]; 15 mg/kg i.p.,3.19 ± 1.37 sec per 5 min period
same,"time spent licking, early phase",[6]; 20 mg/kg i.p.,4.33 ± 2.85 sec per 5 min period
same,"time spent licking, late phase (15-50 min)",[6]; 20 mg/kg i.p.,0.05 ± 0.05 sec per 5 min period
same,antinociceptive effect in the formalin test,"[6]; i.p., early and late phases",attenuated the mean time spent licking in a dose-dependent manner in both phases; also recorded: significant analgesic effect in both phases; also recorded: dose-dependent antinociceptive effect in both phases
same,effect on morphine tolerance,[7]; 2 mg/kg,no effect on morphine tolerance
same,effect on morphine tolerance,[7]; 20 mg/kg,attenuated
same,effect on morphine tolerance,[7]; 40 mg/kg,completely abolished
same,"morphine tolerance (words, overall)","[7]; 8 days, early and late phases",Tolerance did not develop in mice treated with NDMQX followed by morphine; also recorded: blocked morphine tolerance in both phases of the formalin test
same,reduction in cortical infarct volume,"[8]; 10 mg/kg i.v. bolus then 7 mg/kg/h for 22 hours, p<0.05",71%
same,neuroprotection,[8]; rat focal ischemia,significant neuroprotection
same,effect on morphine-induced antinociception,[9],did not alter the antinociceptive effect of morphine; also recorded: not due to potentiation of morphine-induced antinociception
same,protection from electroshock seizures,[10],dose-dependently protected mice from generalized clonic-tonic seizures
same,Ki,[11],43 nM
same,ED50 as an anticonvulsant in the MES experiment in mice,[12],4 to 5 mg/kg
